# “Also recorded” adds a separate entry of the source.
# How the values were obtained:
# [1] = tested on: transcription factor CREB in SH-SY5Y cells; test: Dual luciferase method for intracellular cascades (FIG. 5); format: cell-based, human; details: dose-dependent activating effect, 48 h incubation, three independent experiments
# From the text: The effects of β-carbolines on several intracellular cascades were investigated. Of them it is known, that at their respective ends, several transcription factors are formed in the cell nucleus, that in turn activate the transcription of a group of further genes. The dual luciferase method was used. One luciferase served as transfection control, whereas the second is coupled to the appropriate specific binding sequence of the DNA.
# [2] = design: species or system guinea pigs; details: guinea pig, in vivo
# Method: Thus, infusion took place into the middle ear and, therefore, outside the cochlea of the inner ear, whereby the tympanic membrane was not damaged. After three hours, 5 μL of perilymph were obtained from the apex, the tip of the cochlea, i.e. the part of the cochlea distanced most from the membrane of the round window, by a previously implanted cannula. The sample was diluted and was separated immediately by high-pressure liquid chromatography (HPLC) without further processing; and the natural fluorescence of β-carboline was determined by a fluorescence detector. The experiment was repeated with a second guinea pig and identical conditions but the sample was obtained after a 10-hour infusion. […] In a second series, 20 μg of 9-Me-BC were applied into the perilymph straight through the membrane of the round window, i.e. intra-cochlear. After three hours and after 20 hours in case of another animal, perilymph was obtained and analysed as described above. Results are depicted in FIG. 6 together with a calibration series. […] A single maximum, which represents 9-Me-BC, can be seen after 7 minutes in the upper chromatogram of FIG. 6. Clearly, no further maximum is to be seen; thus, 9-Me-BC is not degraded.
# [3] = tested on: NPY (Neuropeptide Y) in human SH-SY5Y cells; test: Relative gene expression of NPY (FIG. 4E); format: cell-based; details: after 14 days of exposure
# Method: (§1) Next, it was investigated, whether the substances could induce the formation of nerve growth factors in human SH-SY5Y neuroblastoma cell. After 2 and 14 days the cells were harvested and the expression of the target gene and the house keeping gene was determined via reverse transcriptase-PCR.
# [4] = tested on: BDNF (brain-derived neurotrophic factor) in human SH-SY5Y cells; test: Relative gene expression of BDNF (FIG. 4A); format: cell-based; details: after two days
# Method: as §1
# [5] = tested on: human SH-SY5Y neuroblastoma cells; test: Differentiation model / neurite length in human neuroblastoma cells; format: cell-based; details: 14 days; for neurite length: vs control group, P<0.001; for differentiation / neurite length in comparison to 9-methyl-β-carboline: key: +: marginally better than 9-methyl-β-carboline; ±: equal to 9-methyl-β-carboline; −: marginally worse than 9-methyl-β-carboline
# From the text: Human neuroblastoma cells were utilised for this model. These are permanent cells, which are present as an indifferent type in culture. They can be activated to differentiate, i.e. transformation into neuronal cells, by addition of specific substances such as retinoic acid, […] (BDNF) or activator of the enzyme, protein kinase C to the culture medium. We used this cell system to analyse whether beta-carbolines can transform the indifferent cells into the neuronal type. Criteria were: less proliferation (less cells per field of view); smaller cell bodies (transformation from the indifferent type to the neuronal type); cytodendrites (neuritis), which provide connections to neighbouring cells or clusters of neighbouring cells.
# Human SH-SY5Y neuroblastoma cells were incubated in culture for 14 days with solvent (Ko) or test substance. A shift of the graph to the right side for a test substance, pointed to an increase of neurite length, when compared to the graph for the control substance. Statistical differences between the treated groups were calculated with the Tukey's Multiple Comparison-Test.
# Shown are the cumulative frequency distributions of neurite lengths, determined in at least 20 randomly selected visual fields (each 640.000 μm^2) in three independent experiments. A steep rise pointed to a predominance of short neuritis, wherein for example in control cells, a less steep rise signified a greater number of longer neurites. The horizontal maximum indicated the maximal neurite length of the respective treatment group. […] The effects are dose- and substance-dependent: 1-methyl-β-carboline <6-methoxy-9-methyl-β-carboline <9-methyl-β-carboline <9-fluorethyl-β-carboline).
# The effects of the other inventive β-carbolines (compounds A-L and VI-XX) on neurite length were determined, as described above, in human SH-SY5Y neuroblastoma cells after 14 days.
# [6] = tested on: organ of Corti of the cochlea of rats; test: Real-time RT-PCR of organ cultures of the organ of Corti (Example 14); format: cell-based; details: 90 μM, 48 hours, rat organ of Corti culture, vs solvent (100%)
# Method: Initially, organ cultures of the organ of Corti of the cochlea of rats were prepared, which were brought into contact with 9-methyl-β-carboline in a next step. Expression of different neurotrophins was measured as a marker of the effects of 9-methyl-β-carboline on the organs or Corti. For this, RNA was isolated from Corti's tissue, transcribed into cDNA, and the concentrations of the cDNAs of the neurotrophins were determined with help of the real-time RT-PCR method.
# Organs of Corti of the cochlea of 40 rats were prepared in several sessions on day 4 post partum. […] Amount and quality of the RNA were determined photometrical. […] Real-time reverse transcriptase polymerase chain reaction (real-time RT-PCR) was performed with the LightCycler System of Roche Applied Science, Mannheim, using the fluorescence resonance energy transfer (FRET) method. […] The gen for hydroxymethylbilane synthase (HMBS) was selected as a so-called housekeeping gene for relative quantification. […] The measured fluorescence of each cycle was analysed by the LightCycler Software. […] Quantification was conducted by the 2^−ΔΔC(t) method of Livak and Schmittgen (Livak K J and Schmittgen T D. Analysis of relative gene expression data using real-time quantitative PCR and the 2(-Delta Delta C(T)) Methods 2001; 25:402-8).
# inner ear of guinea pigs = test: Prophylaxis of hearing damages in an animal model, gentamicin and etacrynic acid (Example 30); format: in vivo; details: infusion to the round window recess, gentamicin and etacrynic acid i.v.
# Method: A solution containing β-carboline was infused continuously into the recess in front of the membrane of the round window of guinea pigs by a osmotic mini-pump for three days. The following β-carbolines were tested individually in this experiment: 9-methyl-β-carboline, compounds XI, XII, XVIII, XIX as well as C to L.
# Then, a standard dose of gentamicin and etacrynic acid was injected intravenously into guinea pigs. Gentamicin and etacrynic acid damage the inner ear. Typically, they are used as toxins to induce deafness in such studies. The infusion was continued for further two days. Then, the electrophysiological activity of the nerve cells of the brain stem, which transmit the impulses of the inner ear, was deduced after acoustic irradiation of the ear with […]. The non-β-carboline-treated ear served as intraindividual control (Prieskorn D M, Miller J M. Technical report: chronic and acute intracochlear infusion in rodents. Hear Res, 2000; 140(1-2): 212-215). Moreover, animals were infused with 9-Me-BC only but not with gentamicin as a further control.
# The measured electrophysiological activity of the nerve cells of the acoustic nerve (hearing threshold) served as a measure of the degree of therapeutic effect of the used β-carbolines on the inner ear. As can be learned from Table 3, the used β-carbolines show the increase in electrophysiological activity of the nerve cells of the acoustic nerve. It can be concluded from this that β-carbolines are useful for the treatment of hearing damages, vertigo, and vestibular disorders.
# [7] = tested on: cerebellin-1 precursor protein (CBLN) in human SH-SY5Y cells; test: Relative gene expression of CBLN (FIG. 4B); format: cell-based
# Method: as §1
Structure (SMILES),formation of the transcription factor CREB relative to the level in control cells [1],degradation in perilymph (further chromatographic maxima) [2],penetration of the membrane of the round window into the perilymph [2],"NPY gene expression, concentration dependence [3]",concentration(s) that stimulated BDNF transcription [4],"neurite length ([5]; 70, 90 or 110 μM)","generation of neurotrophins Armetl 1, BDNF, Cbln 1, NGF and NPY (transcription) [6]","dopaminergic proteins (dopamine receptor subtype 1, tyrosine hydroxylase) transcription ([6]; listed as 9-Me-BC)","effect on the inner ear (electrophysiological activity, hearing threshold) in comparison to 9-methyl-β-carboline (inner ear of guinea pigs)",CBLN gene expression ([7]; after 14 days of exposure),CBLN gene expression ([7]; after two days exposure),"neurite length ([5]; 30, 50 or 70 μM)",differentiation / neurite length in comparison to 9-methyl-β-carboline ([5]; SH-SY5Y cells)
Cn1c2ccccc2c2ccncc21 [9-methyl-β-carboline],up to ten times,not degraded,penetrates the membrane of the round window,lower concentrations were more effective than the higher concentrations,110 µM,increase in neurite length,activated,activates specifically characteristic proteins of dopaminergic nerve cells; also recorded: increasingly activated,,,,,
"FCCn1c2ccccc2c2ccncc21 [fluorethyl-BC (XIX), 9-(2-fluoroethyl)-9H-β-carboline]",up to ten times,,,lower concentrations were more effective than the higher concentrations,,,,,+,roughly the same stimulation at all investigated concentrations,increased,increase in neurite length,+

# — US9107914B2, “Beta-carbolines for use in the treatment of hearing loss and vertigo” (AudioCure Pharma GmbH, priority 2009, dated 2015)
